Results taken from US8933195B2, “Histone deacetylase inhibitors and synthetic method thereof and use thereof in manufacture of medicaments” (Nanjing Yoko Biomedical R & D Ltd., priority 2011, dated 2015).
pIC50: −log10 of the molar value.

Columns and labels:
Incap = assay: MTT cancer cell growth inhibition; type: cell-based; details: 72 h
[1] = tested on: U937 (human leukemia cells); assay: MTT cancer cell growth inhibition; type: cell-based; details: U-937, 72 h
From the text: (§1) 1. Experimental principles: the inhibition of cancer cell growth with compounds is detected by an MTT method. The principle of the MTT method is as follows: yellow thiazolyl blue may penetrate through cell membranes and enter into cells, succinate dehydrogenase in living cell mitochondria may reduce exogenous MTT into water-insoluble ianthinus acicular Formazan crystals which deposit in the cells, the crystals can be dissolved with dimethyl sulfoxide (DMSO), the optical density of the crystals is detected with an enzyme-linked immunometric meter at the wavelength of 490 nm/570 nm, and the number of cells can be indirectly reflected.
(§2) 2. Experimental materials: the used cancer cell lines are Hela (human cervical cancer cells), MCF-7 (human breast cancer cells), BGC-823 (human gastric cancer cells), A549 (human lung cancer cells), HT1080 (human fibrosarcoma cells), A431 (human epidermal squamous cell carcinoma cells), HUVEC (human umbilical vein endothelial cells), DU145 (human prostate cancer cells), K562 (human leukemia cells), U937 (human leukemia cells), Pac-1 (human pancreatic cancer cells), and MOLT-4 (human acute lymphoblastic leukemia cells), which are cultured with a DMEM+10% FBS culture medium or a 1640+10% FBS culture medium, respectively.
(§3) Experimental groups: 190 μl cell suspension+10 μl pharmaceuticals in different concentrations (the final concentration is 10^−5-10^−10M)
(§4) Negative control group: 190 μl cell suspension+10 μl 2% DMSO (the final concentration of DMSO is 0.1%)
(§5) a) Cells are inoculated on a 96-pore plate, with 1500 cells and 190 μl for each hole, and cultured overnight in a 5% CO2 incubator at 37.
(§6) b) 10 μl of different pharmaceuticals is added into each hole the next day, with the final concentration of the pharmaceuticals of 10^−5-10^−10M and three parallel holes, and incubated for 72 h in a 5% CO2 incubator at 37.
(§7) c) 20 μl of 5 mg/mL MTT is added into each hole, and incubated for 4 h in a 5% CO2 incubator at 37.
(§8) d) Supernatant is removed. 100 μl of DMSO is added into each hole and vibrated.
(§9) e) The reading is 570 nm. The cell survival rate is calculated.

[2] = tested on: A549 (human lung cancer cells); assay: MTT cancer cell growth inhibition; type: cell-based; details: 72 h
From the text: as §1, §2, §3, §4, §5, §6, §7, §8, §9

PANC-1 = assay: MTT cancer cell growth inhibition; type: cell-based; details: Homo sapiens, 72 h
From the text: as §1, §2, §3, §4, §5, §6, §7, §8, §9

[3] = tested on: MOLT-4 (human acute lymphoblastic leukemia cells); assay: MTT cancer cell growth inhibition; type: cell-based; details: 72 h
From the text: as §1, §2, §3, §4, §5, §6, §7, §8, §9

[4] = tested on: HT1080 (human fibrosarcoma cells); assay: MTT cancer cell growth inhibition; type: cell-based; details: HT-1080, 72 h
From the text: as §1, §2, §3, §4, §5, §6, §7, §8, §9

[5] = tested on: MCF-7 (human breast cancer cells); assay: MTT cancer cell growth inhibition; type: cell-based; details: MCF7, 72 h
From the text: as §1, §2, §3, §4, §5, §6, §7, §8, §9

[6] = tested on: Hela (human cervical cancer cells); assay: MTT cancer cell growth inhibition; type: cell-based; details: 72 h
From the text: as §1, §2, §3, §4, §5, §6, §7, §8, §9

[7] = tested on: BGC-823 (human gastric cancer cells); assay: MTT cancer cell growth inhibition; type: cell-based; details: 72 h, read-out: GI50 BGC823
From the text: as §1, §2, §3, §4, §5, §6, §7, §8, §9

[8] = tested on: DU145 (human prostate cancer cells); assay: MTT cancer cell growth inhibition; type: cell-based; details: DU-145, 72 h
From the text: as §1, §2, §3, §4, §5, §6, §7, §8, §9

HDAC7 = molecular target: T1, HDAC7 (Homo sapiens, UniProt Q8WUI4); assay: Measurement of biochemical activities of HDAC (fluorescently-labeled acetylated lysine substrate)
T1 sequence (Q8WUI4 1-952): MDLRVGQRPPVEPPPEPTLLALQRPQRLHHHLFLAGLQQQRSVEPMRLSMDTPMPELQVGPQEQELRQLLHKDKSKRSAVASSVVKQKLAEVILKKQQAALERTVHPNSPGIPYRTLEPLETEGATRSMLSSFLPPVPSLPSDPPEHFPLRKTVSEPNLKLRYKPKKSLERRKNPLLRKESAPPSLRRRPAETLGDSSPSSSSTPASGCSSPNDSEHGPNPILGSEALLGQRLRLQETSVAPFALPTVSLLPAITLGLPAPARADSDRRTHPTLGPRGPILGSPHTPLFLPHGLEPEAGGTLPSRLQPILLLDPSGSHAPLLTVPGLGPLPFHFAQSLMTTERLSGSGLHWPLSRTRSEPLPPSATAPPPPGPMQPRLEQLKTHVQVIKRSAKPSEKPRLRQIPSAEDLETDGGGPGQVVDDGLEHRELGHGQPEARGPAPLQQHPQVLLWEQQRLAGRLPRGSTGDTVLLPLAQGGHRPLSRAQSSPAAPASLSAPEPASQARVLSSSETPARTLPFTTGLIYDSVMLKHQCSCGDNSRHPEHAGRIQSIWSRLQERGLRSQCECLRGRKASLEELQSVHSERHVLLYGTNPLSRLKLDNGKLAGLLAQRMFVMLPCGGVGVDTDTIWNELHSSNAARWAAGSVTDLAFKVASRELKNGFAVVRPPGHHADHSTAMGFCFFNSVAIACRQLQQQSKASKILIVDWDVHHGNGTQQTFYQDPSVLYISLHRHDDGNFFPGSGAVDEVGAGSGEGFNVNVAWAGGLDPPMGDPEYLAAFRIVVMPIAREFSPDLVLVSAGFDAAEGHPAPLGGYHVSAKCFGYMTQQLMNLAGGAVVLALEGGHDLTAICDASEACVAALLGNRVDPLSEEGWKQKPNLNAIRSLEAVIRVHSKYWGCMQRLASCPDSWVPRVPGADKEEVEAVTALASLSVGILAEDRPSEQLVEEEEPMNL
Method: (§10) 1. Measurement principles: the measurement of biochemical activities of compounds is determined according to the degree of the compounds inhibiting the deacylation of HDAC enzyme. After the fluorescently-labeled substrate containing acetylated lysine side chain reacts with the HDAC enzyme, the fluorogenic substrate is deacetylated. After the deacetylated fluorescently-labeled substrate is cracked by the enzyme, a fluorescent substance is released. The fluorescent substance generates emitting light of 460 nm under the excitation of light of 360 nm.
(§11) 2. Detailed steps: the substrate of HDAC is diluted to […] (the reaction concentration is […]) with a reaction buffer. HDAC enzyme is diluted to a proper concentration. The compounds to be detected in different concentrations are added. The mixture reacts for 30 min at 37. Then the developer with the same volume and twice concentration of the substrate is added into the mixture. The mixture is incubated for 15 min at room temperature. Finally, the reading is measured with a micro plate scanner. The excitation light is 360 nm, the emitting light is 460 nm, and the data is processed with Prime 4 software.

HDAC1 = HDAC1 (Homo sapiens, UniProt Q13547); assay: as above; details: read-out: IC50 HDAC1
Sequence of HDAC1 (Q13547 whole entry, species assumed): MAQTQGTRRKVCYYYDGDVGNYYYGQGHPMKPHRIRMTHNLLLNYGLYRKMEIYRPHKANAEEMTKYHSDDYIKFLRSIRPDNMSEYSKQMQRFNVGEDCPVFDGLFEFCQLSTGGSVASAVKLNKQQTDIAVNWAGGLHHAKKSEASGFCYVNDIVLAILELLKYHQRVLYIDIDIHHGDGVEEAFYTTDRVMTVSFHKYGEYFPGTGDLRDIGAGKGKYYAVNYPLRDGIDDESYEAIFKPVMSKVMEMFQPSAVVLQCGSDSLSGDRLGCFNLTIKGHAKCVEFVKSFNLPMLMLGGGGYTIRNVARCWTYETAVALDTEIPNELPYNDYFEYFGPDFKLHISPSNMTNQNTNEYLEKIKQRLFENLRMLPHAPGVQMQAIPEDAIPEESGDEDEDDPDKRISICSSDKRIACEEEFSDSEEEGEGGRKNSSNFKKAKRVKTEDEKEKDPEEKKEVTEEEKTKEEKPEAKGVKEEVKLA
Method: as §10, §11

| Structure (SMILES) | GI50 (Incap) [µM] | GI50 [1] [µM] | GI50 [2] [µM] | GI50 (PANC-1) [µM] | GI50 [3] [µM] | GI50 [4] [µM] | GI50 [5] [µM] | GI50 [6] [µM] | GI50 [7] [µM] | GI50 [8] [µM] | IC50 HDAC7 (HDAC7) | pIC50 (HDAC1) |
| --- | --- | --- | --- | --- | --- | --- | --- | --- | --- | --- | --- | --- |
| C/C=C1\NC(=O)C2N=C(CNC(=O)C[C@@H](/C=C/CCSC(=O)CCCCCCC)OC(=O)[C@H](C(C)C)NC1=O)S[C@@H]2C (stereo partly drawn) [Compound 2-3] | 0.5 | 1.23 | 2.6 | 2.65 | 23.1 | 40.5 | 21.4 | 26.5 | 1.56 | 0.56 | no activity | > 5.00 |
| C/C=C1\NC(=O)C2N=C(CNC(=O)C[C@@H](/C=C/CCSC(=O)CCCCCCC)OC(=O)[C@H](C(C)C)NC1=O)O[C@@H]2C (stereo partly drawn) [Compound 2-2] | 23.6 | 10.2 | 2 | 0.6 | 26.2 | 4.5 | 2.3 | 0.6 | 1.6 | 56.5 | no activity | > 5.00 |
| C/C=C1\NC(=O)c2csc(n2)CNC(=O)C[C@@H](/C=C/CCSC(=O)CCCCCCC)OC(=O)[C@H](Cc2cccc3ccccc23)NC1=O [Compound 1-9] | 0.03 | 0.005 | 0.03 | 0.6 | 0.01 | 0.04 | 0.05 | 0.05 | 0.05 | 0.003 | no activity | > 5.00 |
| C=C1NC(=O)c2csc(n2)CNC(=O)C[C@@H](/C=C/CCSC(=O)CCCCCCC)OC(=O)[C@H](C(C)C)NC1=O [Compound 3-1] | 5.4 | 21.5 | 0.35 | 10.6 | 0.15 | 1.06 | 2.1 | 0.01 | 1.2 | 2.03 | no activity | > 5.00 |
| C/C=C1\NC(=O)c2coc(n2)CNC(=O)C[C@@H](/C=C/CCSC(=O)CCCCCCC)OC(=O)[C@H](C(C)C)NC1=O [Compound 2-1] | 2.01 | 1.3 | 0.9 | 2.06 | 0.1 | 4.1 | 0.5 | 0.2 | 5 | 0.05 | no activity | > 7.00 |
| C/C=C1\NC(=O)c2csc(n2)CNC(=O)C[C@@H](/C=C/CCSC(=O)CCCCCCC)OC(=O)[C@H](C)N(C)C1=O [Compound 5-1] | 73.5 | 0.34 | 21.3 | 0.65 | 0.01 | 19.6 | 3.65 | 3.05 | 2.1 | 0.65 | no activity | > 5.00 |
| C/C=C1\NC(=O)c2csc(n2)[C@H](Cc2ccccc2)NC(=O)C[C@@H](/C=C/CCSC(=O)CCCCCCC)OC(=O)[C@H](C(C)C)NC1=O [Compound 4-3] | 1.02 | 0.65 | 4.66 | 0.01 | 0.03 | 3.03 | 2.55 | 1.06 | 7.12 | 0.14 | no activity | > 5.00 |
| C/C=C1\NC(=O)c2csc(n2)CNC(=O)C[C@@H](/C=C/CCSC(=O)CCO)OC(=O)[C@H](C(C)C)NC1=O [Compound 6-5] | 0.45 | 2.66 | 0.365 | 1.65 | 0.268 | 1.65 | 4.12 | 0.54 | 26.5 | 0.695 | no activity | > 5.00 |
| C/C=C1\NC(=O)c2csc(n2)CNC(=O)C[C@@H](/C=C/CCSC(=O)CCCCCCC)OC(=O)[C@H](CC)NC1=O [Compound 1-2] | 0.07 | 0.004 | 0.3 | 0.2 | 0.03 | 0.1 | 0.05 | 0.1 | 0.02 | 0.004 | no activity | > 6.72 |
| C/C=C1\NC(=O)C2=NC(=NC2)CNC(=O)C[C@@H](/C=C/CCSC(=O)CCCCCCC)OC(=O)[C@H](C(C)C)NC1=O [Compound 2-5] | 0.56 | 21 | 2.13 | 26.4 | 1.03 | 1.02 | 26 | 12 | 20.6 | 5.46 | no activity | > 5.00 |
| C/C=C1\NC(=O)c2csc(n2)[C@H](Cc2ccc(O)cc2)NC(=O)C[C@@H](/C=C/CCSC(=O)CCCCCCC)OC(=O)[C@H](C(C)C)NC1=O [Compound 4-4] | 4.26 | 10.2 | 0.01 | 3.01 | 0.05 | 0.65 | 0.006 | 1 | 1.02 | 2.1 | no activity | > 5.00 |
| C/C=C1\NC(=O)c2csc(n2)CNC(=O)C[C@@H](/C=C/CCSC(=O)CCCCCCCCCCCC)OC(=O)[C@H](C(C)C)NC1=O [Compound 6-3] | 12 | 10.1 | 41 | 0.89 | 3.64 | 25 | 56.6 | 45 | 5 | 13.6 | no activity | > 5.00 |
